# Reference: ChEMBL document CHEMBL5360655, “Design, Synthesis, and Biological Evaluation of Novel P2X7 Receptor Antagonists for the Treatment of Septic Acute Kidney Injury” (J Med Chem, 2023)
# Active and inactive are the calls of the source. The rule behind the calls is not given here.
# Columns and labels:
# Mus musculus [1] = assay: Reno-protective activity against LPS-induced acute kidney injury C57BL/6J mouse model assessed as decrease in serum […] level at 5 to 20 mg/kg, ip administered twice at 30 mins prior to LPS challenge and 8 hrs post-LPS challenge and measured at 16 hrs post-LPS challenge; assay type: functional, organism-based; conditions: dose 5-20 mg/kg, time 16.5 hrs
# [2] = biological target: T1, P2X purinoceptor 7 (Mus musculus) (UniProt Q9Z1M0); assay: Antagonist activity at mouse P2X7 receptor expressed in HEK293 cells assessed as inhibition of ATP-induced receptor pore formation at 1 uM by propidium iodide dye uptake based fluorescence analysis; assay type: cell-based; conditions: filed as antagonist
# T1 sequence (whole entry): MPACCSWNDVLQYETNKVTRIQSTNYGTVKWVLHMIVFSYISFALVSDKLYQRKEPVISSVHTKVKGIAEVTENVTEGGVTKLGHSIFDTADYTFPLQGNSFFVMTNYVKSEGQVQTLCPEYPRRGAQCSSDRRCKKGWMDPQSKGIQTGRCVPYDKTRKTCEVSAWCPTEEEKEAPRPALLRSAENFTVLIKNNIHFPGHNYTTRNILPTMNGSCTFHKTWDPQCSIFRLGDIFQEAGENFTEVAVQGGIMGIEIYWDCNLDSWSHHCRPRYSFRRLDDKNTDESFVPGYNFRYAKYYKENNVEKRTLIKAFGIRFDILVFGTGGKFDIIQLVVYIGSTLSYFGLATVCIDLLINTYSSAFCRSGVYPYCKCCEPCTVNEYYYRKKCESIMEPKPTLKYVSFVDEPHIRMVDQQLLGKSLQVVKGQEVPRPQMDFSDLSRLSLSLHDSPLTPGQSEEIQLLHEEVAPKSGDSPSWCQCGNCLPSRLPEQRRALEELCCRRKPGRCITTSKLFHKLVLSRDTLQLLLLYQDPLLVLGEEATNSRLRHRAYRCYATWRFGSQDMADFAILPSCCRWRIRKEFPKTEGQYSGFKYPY
# Cytochrome P450 2E1 = Cytochrome P450 2E1 (Homo sapiens, UniProt P05181); assay: Inhibition of CYP2E1 in human liver microsomes using cholorzoxazone-as substrate upto 100 uM incubated for 10 mins in presence of NADPH by LC-MS/MS analysis; assay type: ADME, Microsome
# Mus musculus [3] = assay: Reno-protective activity against LPS-induced acute kidney injury C57BL/6J mouse model assessed as decrease in KIM1 mRNA expression in kidney at 5 to 20 mg/kg, ip administered twice at 30 mins prior to LPS challenge and 8 hrs post-LPS challenge and measured at 16 hrs post-LPS challenge by RT-qPCR analysis; assay type: functional, organism-based; conditions: dose 5-20 mg/kg, time 16.5 hrs
# [4] = Oral bioavailability in BALB/c mouse at 10 mg/kg measured for 24 hrs by LC-MS/MS analysis; assay type: ADME, organism-based; conditions: in vivo
# [5] = Toxicity in C57BL/6J mouse assessed as pathological changes in lungs at 20 mg/kg, ip administered twice at 0 hrs and 8 hrs and measured after 16 hrs by Hematoxylin-Eosin staining based analysis; assay type: organism-based; conditions: in vivo
# Mus musculus [6] = assay: (§1) Reno-protective activity against CLP-induced acute kidney injury C57BL/6J mouse model assessed as decrease in NLRP3 protein expression in kidney at 20 mg/kg, ip administered twice at 30 mins prior to CLP operation and 8 hrs post-CLP operation and measured at 16 hrs post-CLP operation by western blot analysis; assay type: functional, organism-based; conditions: time 16.5 hrs
# [7] = biological target: T2, P2X purinoceptor 7 (Homo sapiens) (UniProt Q99572); assay: Antagonist activity at P2X7 receptor in human THP-1 cells assessed as inhibition of Bz-ATP-evoked channel current at 2 uM by whole-cell patch clamp analysis; assay type: cell-based; conditions: filed as antagonist
# T2 sequence (whole entry): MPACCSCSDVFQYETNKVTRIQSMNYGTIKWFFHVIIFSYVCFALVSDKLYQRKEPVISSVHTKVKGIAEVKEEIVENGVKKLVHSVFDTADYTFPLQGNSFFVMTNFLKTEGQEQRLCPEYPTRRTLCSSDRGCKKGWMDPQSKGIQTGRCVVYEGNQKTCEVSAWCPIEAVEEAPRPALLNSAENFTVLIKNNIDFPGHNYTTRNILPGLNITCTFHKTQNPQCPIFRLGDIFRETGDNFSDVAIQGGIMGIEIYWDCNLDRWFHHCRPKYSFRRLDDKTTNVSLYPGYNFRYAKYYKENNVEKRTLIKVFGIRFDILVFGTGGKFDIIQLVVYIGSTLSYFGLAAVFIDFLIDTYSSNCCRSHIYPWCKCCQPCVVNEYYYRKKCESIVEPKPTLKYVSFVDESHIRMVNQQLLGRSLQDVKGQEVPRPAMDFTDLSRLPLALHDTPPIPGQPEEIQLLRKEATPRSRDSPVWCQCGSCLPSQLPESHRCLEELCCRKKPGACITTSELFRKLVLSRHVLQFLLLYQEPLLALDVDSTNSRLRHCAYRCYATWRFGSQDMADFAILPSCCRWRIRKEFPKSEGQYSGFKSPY
# Mus musculus [8] = assay: as §1, with “caspase-1 mRNA” for “NLRP3 protein”, “RT-qPCR” for “western blot”; assay type: functional, organism-based; conditions: time 16.5 hrs
# Mus musculus [9] = assay: as §1, with “IL-18 mRNA” for “NLRP3 protein”, “RT-qPCR” for “western blot”; assay type: functional, organism-based; conditions: time 16.5 hrs
# Mus musculus [10] = assay: (§2) Reno-protective activity against CLP-induced acute kidney injury C57BL/6J mouse model assessed as decrease in NGAL mRNA expression in kidney at 20 mg/kg, ip administered twice at 30 mins prior to CLP operation and 8 hrs post-CLP operation and measured at 16 hrs post-CLP operation by RT-qPCR analysis; assay type: functional, organism-based; conditions: time 16.5 hrs
# [11] = biological target: T2, P2X purinoceptor 7 (Homo sapiens); assay: Antagonist activity at human P2X7 receptor expressed in HEK293 cells assessed as inhibition of ATP-induced receptor pore formation at 1 uM by propidium iodide dye uptake based fluorescence analysis; assay type: cell-based; conditions: filed as antagonist
# [12] = Tmax in BALB/c mouse at 10 mg/kg, ip measured for 24 hrs by LC-MS/MS analysis; assay type: ADME, organism-based; conditions: in vivo
# THP-1 = assay: Inhibition of ATP-induced apoptosis in human THP-1 cells at […] pretreated with compound for 3 hrs in presence of LPS followed by incubation with ATP for 1 hr by PI/Hoechst staining based fluorescence microscopic analysis; assay type: functional, cell-based; conditions: dose 2.5 µM, time 4.0 hrs
# [13] = Ratio of MTD in ip dosed C57BL/6J mouse to MED for reno-protective activity against ip dosed LPS-induced acute kidney injury C57BL/6J mouse model; assay type: ADME, organism-based; conditions: in vivo
# [14] = Cmax in BALB/c mouse at 10 mg/kg, po measured for 24 hrs by LC-MS/MS analysis; assay type: ADME, organism-based; set-up: time 24 hrs, dose 10 mg/kg, route po; conditions: in vivo
# Cytochrome P450 2C9 = Cytochrome P450 2C9 (Homo sapiens, UniProt P11712); assay: Inhibition of CYP2C9 in human liver microsomes using tolbutamide as substrate upto 100 uM incubated for 10 mins in presence of NADPH by LC-MS/MS analysis; assay type: ADME, Microsome
# Mus musculus [15] = assay: as §2, with “Il17 gene” for “NGAL mRNA”, “RNA sequencing” for “RT-qPCR”; assay type: functional, organism-based; conditions: time 16.5 hrs
# [16] = biological target: T2, P2X purinoceptor 7 (Homo sapiens); assay: Antagonist activity at P2X7 receptor in human THP-1 cells assessed as inhibition of ATP-induced NLRP3 inflammasome activation at 0.1 to […] pretreated with LPS for 3 hrs followed by incubation with compound for 40 mins followed by treatment with ATP for 1 hr by western blot analysis; assay type: cell-based; conditions: filed as antagonist, dose 0.1-2.5 µM, time 100.0 min
# [17] = Half life in human liver microsomes; assay type: ADME, Microsome
# Sequence of Cytochrome P450 2E1 (P05181 whole entry): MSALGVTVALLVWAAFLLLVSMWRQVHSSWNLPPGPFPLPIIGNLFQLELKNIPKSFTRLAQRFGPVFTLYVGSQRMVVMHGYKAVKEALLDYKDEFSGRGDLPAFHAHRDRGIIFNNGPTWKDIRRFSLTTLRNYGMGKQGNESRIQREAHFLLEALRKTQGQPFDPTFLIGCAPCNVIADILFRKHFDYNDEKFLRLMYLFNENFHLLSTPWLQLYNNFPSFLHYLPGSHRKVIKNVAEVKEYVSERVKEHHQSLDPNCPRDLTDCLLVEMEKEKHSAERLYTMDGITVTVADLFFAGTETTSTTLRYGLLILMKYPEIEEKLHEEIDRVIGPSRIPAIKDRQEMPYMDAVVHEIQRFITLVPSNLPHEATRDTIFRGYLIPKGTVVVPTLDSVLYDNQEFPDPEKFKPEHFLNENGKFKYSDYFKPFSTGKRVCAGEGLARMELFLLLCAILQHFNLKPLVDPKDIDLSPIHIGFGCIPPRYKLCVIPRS
# Sequence of Cytochrome P450 2C9 (P11712 whole entry): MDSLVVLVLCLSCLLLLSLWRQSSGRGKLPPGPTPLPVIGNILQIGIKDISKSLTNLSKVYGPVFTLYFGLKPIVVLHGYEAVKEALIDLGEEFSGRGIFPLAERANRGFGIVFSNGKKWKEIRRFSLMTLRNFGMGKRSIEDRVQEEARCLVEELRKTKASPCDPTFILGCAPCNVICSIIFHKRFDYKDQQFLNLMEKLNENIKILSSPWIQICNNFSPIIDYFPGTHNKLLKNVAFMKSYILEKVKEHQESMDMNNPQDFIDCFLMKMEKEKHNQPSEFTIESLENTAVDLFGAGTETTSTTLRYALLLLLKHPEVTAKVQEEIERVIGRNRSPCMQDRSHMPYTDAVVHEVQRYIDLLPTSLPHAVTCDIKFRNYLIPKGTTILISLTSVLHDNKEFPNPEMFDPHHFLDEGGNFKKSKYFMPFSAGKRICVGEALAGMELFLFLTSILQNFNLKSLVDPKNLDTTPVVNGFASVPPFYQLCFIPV
smiles,measurement,setting,value
CS(=O)(=O)c1ccc(-c2nc(C(=O)NCc3cn(-c4cc(Br)ccn4)nn3)cs2)cc1,Activity,Mus musculus [1],Dose-Dependent Effect
same,inhibition,[2],107%
same,inhibition (INH),Cytochrome P450 2E1,Not Active
same,Activity,Mus musculus [3],Dose-Dependent Effect
same,bioavailability,[4],39.2%
same,Activity,[5],Non-Toxic
same,Activity,Mus musculus [6],Active
same,inhibition,[7],56.1%
same,Activity,Mus musculus [8],Active
same,Activity,Mus musculus [9],Active
same,Activity,Mus musculus [10],Active
same,inhibition,[11],112%
same,Tmax,[12],3 h
same,inhibition,THP-1,Active
same,selectivity ratio,[13],80
same,Cmax,[14],1300 ng/mL
same,inhibition (INH),Cytochrome P450 2C9,Not Active
same,Activity,Mus musculus [15],Active
same,inhibition,[16],Active
same,half-life,[17],105 min
